Source: patent US20200270309A1, “MALEIMIDE GROUP-MODIFIED ANGIOGENESIS INHIBITOR HM-1 AND USE THEREOF” (NANJING ANJI BIOLOGICAL TECHNOLOGY CO., LTD, priority 2017, published 2020)
Where two headings read alike, the source gives them in different places. Marks after values point to notes of the source that are not given here. Ends that are not written are not given here. Peptide text beside a SMILES is read from it. * marks the point of attachment. X18 = O=C1C=CC(=O)N1CCOCCOCCOCCOCCOCCOCCCCCCCC(=O)*; X22 = O=C1C=CC(=O)N1CCOCCOCCOCCOCCOCCOCCCCCC(=O)*; X7 = O=C1C=CC(=O)N1CCOCCOCCOCCOCCOCCOCCCCCCC(=O)*; X23 = O=C1C=CC(=O)N1CCOCCOCCOCCOCCOCCOCCCCC(=O)*; X29 = O=C1C=CC(=O)N1CCOCCOCCOCCOCCOCCOCCCC(=O)*

Tests used:
[1] = system: xylene-induced ear swelling; assay: Xylene-induced mouse ear swelling; assay type: in vivo; settings: Kunming mice, positive control, dose 200 mg/kg, once a day for 5 days
Experimental: Kunming mice were taken, a normal saline group was taken as a blank control group, an aspirin group (200 mg/kg) was taken as a positive control group, and X1-X90 administration groups were taken as test groups. The mice were injected once a day for 5 consecutive days. The blank control group was given an equal volume of normal saline. One hour after the last administration, 0.05 mL of xylene was applied to both sides of the right ear of each mouse to cause inflammation, while no drug was applied to the left ear as a normal ear. Two hours later, the mice were put to death by dislocation. Two ears were cut along the auricle. Ear pieces were taken with a puncher and weighed, and the swelling degree and the swelling rate were calculated. Swelling degree=right ear piece weight-left ear piece weight, swelling rate=(swelling degree/left ear piece weight)*100%. Statistical t-test was conducted on the experimental results. *P<0.05 indicates significant difference, and **P<0.01 indicates extremely significant difference.

[2] = system: splenic lymphocytes; assay: Proliferation of splenic lymphocytes in mice (ConA, MTT); assay type: cell-based; settings: dose 20 μM (Dex group), mouse splenic lymphocytes, 48 h
Experimental: Spleens of mice were taken out under aseptic conditions, washed with blank 1640 culture medium 3 times, ground with a 5 mL syringe core, filtered with a 200-mesh sieve, made into a single cell suspension. The suspension was centrifuged (1000 rpm×5 min), and supernatant was removed. Red blood cells were lysed by Tris-NH4Cl, and placed in ice water bath for 4 min and centrifuged (1000 rpm×5 min). The supernatant was removed, and the cells were washed twice with sterile PBS. Finally, RPMI 1640 culture solution (5 mL) containing 10% calf serum was added to suspend the cells. The cells were counted and the cell concentration was adjusted to 5×10^6 cells/mL, and the cells were cultured in a 96-well culture plate.
Blank control group, concanavalin A (ConA) group and dexamethasone (Dex) group were set in the experiment, and polypeptide X1-X90 groups were set as test groups. After 100 μL of splenic lymphocytes suspension per well was added into each group, 100 μL of blank 1640 culture solution was added into the blank control group, ConA was added into the ConA group, Dex was added into the Dex group, and ConA was added into the test groups on the basis of adding different concentrations of polypeptides X1-X90. The cells were static cultured at 37° C. in a cell incubator for 48 h. After the cultivation was completed, 20 μL of MTT was added to each well, and the cultivation was continued for 4 h. Finally, all the solutions in each well were discarded. 100 μL DMSO was added to each well and shaken, and the OD value at 570 nm was detected with a microplate reader. Five parallel experiments were set in each well.

[3] = system: IL-1β production by mouse peritoneal macrophages; assay: IL-1β production by mouse peritoneal macrophages (ELISA); assay type: cell-based; settings: dose 20 μM
Experimental: Mice were injected intraperitoneally with 1 mL of broth culture medium (containing 6% of starch). Three days later, mice peritoneal macrophages were taken aseptically and washed twice with 1640 culture medium, and the cell concentration was adjusted to 2×10^6 cells/mL. The solutions were injected into 24-well culture plates at 1 mL per well. The cells were incubated in a cell incubator for 3 h and vibrated once every 30 min to make the cells fully adhere to the wall. Then, the cells were washed twice with a culture solution to remove non-adhered cells. PBS was added to the blank group, positive drug Dex was added to the positive group, no drug was added to the model group, and polypeptides X1-X90 with low, medium and high concentrations were added to the test groups; and the cells were continuously cultured for 48 h after administration, and then centrifuged at 1000 r/min for 15 min. The supernatant was collected as a sample to be tested for IL-1β activity.

[4] = system: carrageenan-induced toe swelling; assay: Carrageenan-induced toe swelling in rats; assay type: in vivo; settings: SD rats, Dex 10 mg/kg once a day for 3 d
Experimental: The rats were injected once a day, and the model group was given the same volume of normal saline for 3 d and fed normally. […] The foot swelling degree was calculated according to the following formula: foot swelling degree (mL)=foot volume after inflammation-foot volume before inflammation. The number of milliliters of overflow liquid was recorded (method: a ballpoint pen is used to circle the protruding point of the right joint as a measurement mark, and the right hind feet of each rat are sequentially placed into the volume measurer, so that the hind limbs are exposed outside the barrel, and the immersion depth is at the coincidence of the circle and the liquid level. After the foot enters the liquid, the liquid level rises, and the volume of overflow liquid is the volume of the right hind foot of the rat, and the normal volume of the right hind foot of each rat is measured in sequence).

[5] = system: Head and neck cancers tumor cell line; assay: MTT proliferation inhibition, head and neck cancers; assay type: cell-based, human; settings: 48 h, mean ±SD
[6] = system: Brain tumor cell line; assay: MTT proliferation inhibition, brain tumor; assay type: cell-based, human; settings: 48 h, mean ±SD
[7] = system: Thyroid cancer tumor cell line; assay: MTT proliferation inhibition, thyroid cancer; assay type: cell-based, human; settings: 48 h, mean ±SD
[8] = system: Esophageal cancer tumor cell line; assay: MTT proliferation inhibition, esophageal cancer; assay type: cell-based, human; settings: 48 h, mean ±SD
[9] = system: Pancreatic cancer tumor cell line; assay: MTT proliferation inhibition, pancreatic cancer; assay type: cell-based, human; settings: 48 h, mean ±SD
[10] = Half-lives and pharmacokinetic parameters of polypeptides vs HM-1; settings: in vivo
[11] = system: HUVECs; assay: Transwell migration inhibition on HUVECs; assay type: cell-based, human; settings: dose 0.2 μM
[12] = system: human retinal capillary endothelial cells (HRCECs); assay: MTT proliferation inhibition on HRCECs; assay type: cell-based; settings: 48 h, dose 0.5 μM (positive control)
Experimental: An MTT method was used to detect the inhibitory activity of the angiogenesis inhibitor polypeptide on proliferation of HRCECs. HRCECs were digested and collected with trypsin after being cultured in an incubator at 37° C. with 5% CO2 to a density of 90% or more. The cells were resuspended with a culture solution and counted under a microscope, the cell concentration was adjusted to 3.0×10^4 cells/mL, and the cell suspension was inoculated into a 96-well plate at 100 μL/well, and cultured overnight in an incubator at 37° C. with 5% CO2. After the cells were completely adhered to the wall, cells with the addition of the angiogenesis inhibitor polypeptide were used as administration groups, cells with the addition of Avastin were used as a positive control group, and cells with the addition of culture solution without any drugs were used as a blank control group. The cells were diluted to respective predetermined concentrations with the culture solution. The diluent were added into 96-well plates respectively at 100 μL per well, and the cells were cultured at 37° C. for 48 h in an incubator with 5% CO2. 20 μL of 5 mg/mL MTT was added into each well of the 96-well plate, and the cultivation was continued for 4 h. The culture medium was removed, and 100 μL of DMSO was added to each well for dissolution. The absorbance was measured at a detection wavelength of 570 nm and a reference wavelength of 630 nm using a microplate reader, and the PIR was calculated by the formula as follows:
PIR (%)=1−administration group/negative group
The experiment was repeated independently three times. The results were expressed as mean±SD, and statistical T test was conducted. *P<0.05 indicates significant difference, and **P<0.01 indicates extremely significant difference.

## CC(=O)Oc1ccccc1C(=O)O [Aspirin]
[1]
  Swelling degree (mg): 3.08 ± 0.31** mg
[1]; Mus musculus, 120 h, read-out: Inhibition rate (%)
  inhibition at 200 mg/kg: 51%

## C[C@@H]1C[C@H]2[C@@H]3CCC4=CC(=O)C=C[C@]4(C)[C@@]3(F)[C@@H](O)C[C@]2(C)[C@@]1(O)C(=O)CO [Dex]
[2]
  A570 nm/A630 nm: 0.3918 ± 0.1127
  Inhibition rate (%): 52.65%
[3]; IL-1β production, vs model group
  Inhibition rate: 62.95%
[3]; mouse peritoneal macrophages, 48 h, ELISA
  IL-1β: 352.06 ± 17.29 pg/mL
[4]; 1 h after carrageenan
  Swelling degree 1 h: 0.22 ± 0.10 mg
[4]; 3 h after carrageenan
  Swelling degree 3 h: 0.24 ± 0.11 mg
[4]; 5 h after carrageenan
  Swelling degree 5 h: 0.29 ± 0.11 mg
[4]; 7 h after carrageenan
  Swelling degree 7 h: 0.23 ± 0.08 mg

## CC(=O)O[C@@]12CO[C@@H]1C[C@H](O)[C@@]1(C)C(=O)[C@H](O)C3=C(C)[C@@H](OC(=O)[C@H](O)[C@@H](NC(=O)OC(C)(C)C)c4ccccc4)C[C@@](O)([C@@H](OC(=O)c4ccccc4)[C@H]21)C3(C)C [Docetaxel]
[5]
  PIR (%): 55.66%
[6]
  PIR (%): 70.69%
[7]
  PIR (%): 73.75%
[8]
  PIR (%): 53.43%
[9]
  PIR (%): 45.92%

## C[C@H](NC(=O)CNC(=O)[C@H](CCCNC(=N)N)NC(=O)CCCOCCOCCOCCOCCOCCOCCN1C(=O)C=CC1=O)C(=O)N[C@@H](CC(=O)O)C(=O)N[C@@H](CCCNC(=N)N)C(=O)N[C@@H](C)C(=O)NCC(=O)NCC(=O)NCC(=O)NCC(=O)N[C@@H](CCCNC(=N)N)C(=O)NCC(=O)N[C@@H](CC(=O)O)C(=O)O [X86] (X29-RGADRAGGGGRGD-OH)
[10]
  AUC(0-inf): 25800 ± 8050 ng·h/mL
  MRT inf: 46.2 ± 10.2 h
  clearance: 0.645 mL/min/kg
[10]; T1/2β (half-life)
  half-life: 32.03 ± 0.31 h

## C[C@H](NC(=O)CNC(=O)[C@H](CCCNC(=N)N)NC(=O)CCCCOCCOCCOCCOCCOCCOCCN1C(=O)C=CC1=O)C(=O)N[C@@H](CC(=O)O)C(=O)N[C@@H](CCCNC(=N)N)C(=O)N[C@@H](C)C(=O)NCC(=O)NCC(=O)NCC(=O)NCC(=O)N[C@@H](CCCNC(=N)N)C(=O)NCC(=O)N[C@@H](CC(=O)O)C(=O)O [X87] (X23-RGADRAGGGGRGD-OH)
[10]
  AUC(0-inf): 33400 ± 8450 ng·h/mL
  MRT inf: 59.8 ± 10.6 h
  clearance: 0.498 mL/min/kg
[10]; T1/2β (half-life)
  half-life: 41.42 ± 0.31 h

## C[C@H](NC(=O)CNC(=O)[C@H](CCCNC(=N)N)NC(=O)CCCCCOCCOCCOCCOCCOCCOCCN1C(=O)C=CC1=O)C(=O)N[C@@H](CC(=O)O)C(=O)N[C@@H](CCCNC(=N)N)C(=O)N[C@@H](C)C(=O)NCC(=O)NCC(=O)NCC(=O)NCC(=O)N[C@@H](CCCNC(=N)N)C(=O)NCC(=O)N[C@@H](CC(=O)O)C(=O)O [X88] (X22-RGADRAGGGGRGD-OH)
[10]
  AUC(0-inf): 31800 ± 7130 ng·h/mL
  MRT inf: 56.9 ± 10.1 h
  clearance: 0.523 mL/min/kg
[10]; T1/2β (half-life)
  half-life: 39.45 ± 0.33 h

## C[C@H](NC(=O)CNC(=O)[C@H](CCCNC(=N)N)NC(=O)CCCCCCOCCOCCOCCOCCOCCOCCN1C(=O)C=CC1=O)C(=O)N[C@@H](CC(=O)O)C(=O)N[C@@H](CCCNC(=N)N)C(=O)N[C@@H](C)C(=O)NCC(=O)NCC(=O)NCC(=O)NCC(=O)N[C@@H](CCCNC(=N)N)C(=O)NCC(=O)N[C@@H](CC(=O)O)C(=O)O [X89] (X7-RGADRAGGGGRGD-OH)
[10]
  AUC(0-inf): 33100 ± 7150 ng·h/mL
  MRT inf: 59.1 ± 11.8 h
  clearance: 0.505 mL/min/kg
[10]; T1/2β (half-life)
  half-life: 40.95 ± 0.27 h

## C[C@H](NC(=O)CNC(=O)[C@H](CCCNC(=N)N)NC(=O)CCCCCCCOCCOCCOCCOCCOCCOCCN1C(=O)C=CC1=O)C(=O)N[C@@H](CC(=O)O)C(=O)N[C@@H](CCCNC(=N)N)C(=O)N[C@@H](C)C(=O)NCC(=O)NCC(=O)NCC(=O)NCC(=O)N[C@@H](CCCNC(=N)N)C(=O)NCC(=O)N[C@@H](CC(=O)O)C(=O)O [X90] (X18-RGADRAGGGGRGD-OH)
[10]
  AUC(0-inf): 27600 ± 8160 ng·h/mL
  MRT inf: 49.3 ± 11.5 h
  clearance: 0.605 mL/min/kg
[10]; T1/2β (half-life)
  half-life: 34.18 ± 0.31 h

## Avastin: positive control [reference compound]
[11]; HUVEC migration vs blank control
  Inhibition rate (%): 60.92%
[11]; HUVECs, transwell, 24 h
  Cell migration number (Mean ± SD): 418.92 ± 61.42
[11]; 24 h
  Cell migration number (Mean ± SD): 418.92 ± 61.42
  Inhibition rate (migration): 60.92%
[12]
  Inhibition rate (%): 67.30%**
[12]; mean±SD
  A570 nm-A630 nm: 0.4325 ± 0.01108

## H-RGADRAGGGGRGD [HM-1, Arg-Gly-Ala-Asp-Arg-Ala-Gly-Gly-Gly-Gly-Arg-Gly-Asp]
[10]; read-out: AUC0-∞
  AUC(0-inf): 32800 ± 8410 ng·h/mL
[10]; read-out: CL (converted)
  clearance: 24.8 mL/min/kg
[10]; read-out: MRT0-∞
  MRT inf: 0.068 ± 0.012 h
[10]; read-out: T1/2β (half-life) (converted)
  half-life: 0.35 ± 0.14 h
[10]; read-out: half-life (converted)
  half-life: 0.34 h
